Data as given in PubChem BioAssay (NCI).
“And” between values parts separate entries of the source, which are not always exact repeats. Identical values can stand only once.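 Exposure lasted 48 hours, with cells grown in 96-well plates and compounds tested at five concentrations. Here, GI50 denotes the concentration required for 50% inhibition of growth. The concentration for full growth arrest is given as TGI.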

Tests used:
Test in all cases: inhibition of tumour cell growth, NCI panel, 48 h
[1] = system: SK-MEL-28 melanoma
[2] = system: IGROV1 ovarian
[3] = system: NCI-H23 lung
[4] = system: RPMI-8226 leukemia
[5] = system: DU-145 prostate
[6] = system: OVCAR-5 ovarian
[7] = system: HOP-62 NSCLC
[8] = system: A498 renal
[9] = system: HL-60(TB) leukemia
[10] = system: SK-OV-3 ovarian

SMILES	TGI [1]	TGI [2]	TGI [3]	TGI [4]	TGI [5] [µM]	TGI [6]	TGI [7]	TGI [8]	TGI [9]	TGI [10]	GI50 [1] [µM]	GI50 [2] [µM]	GI50 [3] [µM]	GI50 [4] [µM]	GI50 [8] [µM]	GI50 [10] [µM]	GI50 [5] [µM]	GI50 [6] [µM]	GI50 [7] [µM]	GI50 [9] [µM]
CN(CC(=O)O)Cc1c(O)c(Cl)cc(Cl)c1Cl	97.4 µM	> 100 µM	> 100 µM	> 100 µM	> 100	> 100 µM	> 100 µM	> 100 µM	44.6 µM	> 100 µM										
OC[C@H]1NC[C@@H](O)[C@@H](O)[C@H]1O		> 100 µM	> 100 µM	> 100 µM		> 100 µM	> 100 µM	> 100 µM		> 100 µM										
CSc1nc(CO)c(CO)n1C	> 100 µM	> 100 µM	> 100 µM	> 100 µM		> 100 µM	> 100 µM	> 100 µM	> 100 µM	> 100 µM										
CCCCN1C(=O)c2c(Br)sc(Br)c2C1=O	> 100 µM	> 100 µM	> 100 µM	> 100 µM	> 100	> 100 µM	> 100 µM	> 100 µM		> 100 µM										
Cc1[nH]c(=O)[nH]c(=O)c1/C=C/C(=O)NC(CO)CS(=O)CS(C)=O (centres undefined)	69.8 µM	103 µM	43.7 µM	183 µM		483 µM	94.5 µM	130 µM	57.4 µM	169 µM										
COc1ccccc1CC(C)N (centres undefined)	> 100 µM	> 100 µM	> 100 µM	> 100 µM		> 100 µM	> 100 µM	> 100 µM	> 100 µM	> 100 µM										
COc1ccc(-c2nc3c(nc2-c2ccc(OC)cc2)C(N)=NS(=O)(=O)N3)cc1	> 100 µM	> 100 µM	> 100 µM	> 100 µM		> 100 µM	> 100 µM	> 100 µM	> 100 µM	> 100 µM										
CCOC(=O)Cn1c2ccc(Br)cc2c2nc3ccccc3nc21	> 100 µM	> 100 µM	> 100 µM	> 100 µM	> 100	> 100 µM	> 100 µM	> 100 µM												
Nc1[nH]c(=S)nc2nc3c(c(-c4ccccc4)c12)CCCC3		> 100 µM	> 100 µM	> 100 µM	> 100	> 100 µM	> 100 µM		> 100 µM	> 100 µM										
CC1C(=O)CC(c2cccs2)N(N=O)C1c1cccs1 (centres undefined)	> 100 µM	> 100 µM	> 100 µM	67.2 µM		> 100 µM	> 100 µM	> 70.9 µM	> 72.2 µM	> 81.2 µM										
COC(=O)C1=C(C)N2CCSC2(C)C(C(=O)OC)C1c1cccc(Cl)c1 (centres undefined)	46.9 µM	> 100 µM	73.8 µM	81.7 µM			38.2 µM		49.3 µM											
NC(CCOCCP(=O)(O)CCC1C=CC=CC1)C(=O)O (centres undefined)	> 100 µM	> 100 µM	> 100 µM	> 100 µM	> 100	> 100 µM			> 100 µM	> 100 µM										
CCN(CC)CC[n+]1ccc2c(C)c3[nH]c4ccc(O)cc4c3c(C)c2c1	21.3 µM and 44.8 µM	38.6 µM and 73 µM	25.1 µM and 22.5 µM	43.4 µM and 35.6 µM	14.2	72.6 µM and 73.8 µM	13.4 µM and 18.9 µM	74.6 µM and 84.3 µM	33.2 µM and 33.1 µM	66.9 µM and 58.4 µM	9.07	4.79	2.45	3.41	20.5	5.94				
CCc1n[nH]c(=O)n1/N=C(\C)c1ccc([N+](=O)[O-])cc1	> 100 µM	> 100 µM	> 100 µM	> 100 µM	> 100	> 100 µM	> 100 µM		> 100 µM											
CCOC(=O)CCC(C(=O)OCC)n1nc2ccc(Nc3c(C)[n+]([O-])c4cc(F)c(OCC)cc4[n+]3[O-])cc2n1 (centres undefined)		> 100 µM	> 100 µM	> 100 µM	> 100	> 100 µM	40.8 µM	> 100 µM	> 100 µM	> 100 µM										
N#CC1=C2SCCN2C(=O)C(C#N)C12CCCCC2 (centres undefined)	> 100 µM	> 100 µM	> 100 µM	> 100 µM	> 100	> 100 µM	> 100 µM	> 100 µM		> 100 µM										
COc1ccc(NC(C)=O)cc1N1C(=O)/C(=C\c2ccccc2)SC1c1cc(OC)c(OC)c(OC)c1 (centres undefined)	> 100 µM	> 100 µM	> 100 µM	> 100 µM	80.6		> 100 µM	> 100 µM	81 µM	> 100 µM										
CN(C)CCNC(=O)c1cc(Cl)cc2cc3ccccc3nc12	3.76 µM	8.32 µM	3.42 µM	8.29 µM		1.97 µM	5.04 µM	2.2 µM	2.62 µM	9.27 µM										

SMILES	TGI [1]	TGI [2]	TGI [3]	TGI [4]	TGI [5] [µM]	TGI [6]	TGI [7]	TGI [8]	TGI [9]	TGI [10]	GI50 [1] [µM]	GI50 [2] [µM]	GI50 [3] [µM]	GI50 [4] [µM]	GI50 [8] [µM]	GI50 [10] [µM]	GI50 [5] [µM]	GI50 [6] [µM]	GI50 [7] [µM]	GI50 [9] [µM]
C=C(C)[C@@H]1CCC2=C[C@H](C/C(C)=C\C3=CC(C)=C(O3)[C@H]1O)OC2=O	> 100 µM	> 100 µM		> 100 µM	> 100	> 100 µM		> 100 µM	> 100 µM											
CNC1Cc2c[nH]c3cccc(c23)C12C=C(C)C(=O)O2 (centres undefined)	> 100 µM	> 100 µM	> 100 µM	> 100 µM	> 100	> 100 µM	> 100 µM	> 100 µM	> 100 µM	> 100 µM										
Cc1cc2c(c(O)c1-c1c(C)cc(O)c3c1C(=O)C=CC3=O)C(=O)C=CC2=O		5.11 µM	18.4 µM	2.29 µM	4.73	7.86 µM	56.5 µM	18.9 µM		29 µM										
C[C@@H]1C(=O)O[C@H]1[C@H](O)CO	> 100 µM		> 100 µM	> 100 µM	> 100	> 100 µM	> 100 µM	> 100 µM	> 100 µM	> 100 µM										
C[Si](C)(C)c1ccc(-c2c3ccc(-c4cc(Br)cc(Br)c4)nc3nc3nc(-c4cc(Br)cc(Br)c4)ccc23)cc1	> 100 µM		> 100 µM	> 100 µM	> 100	> 100 µM	> 100 µM	> 100 µM		> 100 µM										
COc1cc(/C=C2\N=C(c3ccccc3)N(c3ccc(C(=O)c4ccccc4)cc3N3C(=O)/C(=C/c4ccc(O)c(OC)c4)N=C3c3ccccc3)C2=O)ccc1O	72.6 µM	29.7 µM		94.3 µM	48.6	95.5 µM	48.9 µM	36.7 µM	16 µM	45 µM										
O=C1c2cccnc2C(=O)c2c1c(C(=O)OCCN1CCCCC1)c1ccccn21	2.19 µM	2.94 µM	0.0291 µM	0.95 µM	0.714	2.02 µM	0.0313 µM	13.1 µM	3.24 µM	0.051 µM	0.21	0.145	0.0057	0.119	0.065	0.0124	0.0189	0.198	0.00554	0.363
C=C1C(=O)O[C@@H]2/C=C(\C)CC/C=C(\C)CC[C@@]12O	13.3 µM	7.63 µM	4.32 µM	6.43 µM	4.93	25.8 µM	15.6 µM	24.8 µM	3.02 µM	54.4 µM										
CCCCCCCCCCCCCC1=C(O)C(=O)C(CC2=C(O)C(=O)C(CCCCCCCCCCCCC)=C(O)C2=O)=C(O)C1=O	> 100 µM	> 100 µM	> 100 µM		> 100	> 100 µM		> 100 µM	> 100 µM	> 100 µM										
CC(=O)O[C@H]1CC[C@H]2[C@@H]3CCC4=CC(=O)C=C[C@]4(O)[C@H]3CC[C@]12C	> 100 µM	> 100 µM	> 62.4 µM	44.3 µM	> 100	> 100 µM	> 100 µM	> 100 µM												
CC(C)(C)c1ccc2c(c1)C#Cc1cc(C(C)(C)C)ccc1OCCCO2	> 100 µM	> 100 µM	> 100 µM	> 100 µM	> 100	> 100 µM	> 100 µM	> 100 µM	> 100 µM											
CC(=O)Nc1cccc(N2C(=O)/C(=C\c3cccc(Oc4ccccc4)c3)S(=O)(=O)C2c2ccccc2)c1 (centres undefined)	> 100 µM	> 100 µM	> 100 µM	> 100 µM	> 100	> 100 µM	> 100 µM	> 100 µM	50.4 µM	> 100 µM										
CCCCCCCCCCCCCCCCCCNc1ccn(C2OC(CO)C(OP(=O)(O)OCC(O)COP(=O)(O)OCC3OC(n4cc(F)c(NCCCCCCCCCCCCCCCCCC)nc4=O)CC3O)C2O)c(=O)n1 (centres undefined)	> 50 µM	> 50 µM	> 50 µM	> 50 µM	> 50	> 50 µM	> 50 µM	> 50 µM	> 50 µM	> 50 µM										
Nc1ccc(O)c2c1C(=O)c1c(N)ccc(O)c1C2=O	> 100 µM	> 100 µM	> 100 µM	> 100 µM		> 100 µM	> 100 µM	> 100 µM	> 100 µM	> 100 µM										
CN(Cc1cn(O)c2nc(=N)nc(N)c-2n1)c1ccc(C(=O)NC23CC4CC(CC(C4)C2)C3)cc1	> 100 µM	> 100 µM	> 100 µM	> 100 µM	> 100	> 100 µM	> 100 µM	57.1 µM	> 100 µM	> 100 µM										
CC(C)(C)OC(=O)N1C(OP(=O)(Oc2ccccc2)Oc2ccccc2)=CSc2ccccc21	> 100 µM	> 100 µM	> 100 µM	52 µM	> 100	> 100 µM	> 100 µM		43.1 µM	> 100 µM										
CCOC(=O)C1(C/C=C/CCl)CCCC1=O (centres undefined)	50.6 µM	42 µM	38.3 µM		> 100	39.1 µM	45.1 µM	> 100 µM	> 100 µM	> 100 µM										
S=c1c2[nH]cnc2ncn1CCSC1=NC=NC2=NC=NC21 (centres undefined)	> 100 µM	> 100 µM	> 100 µM	> 100 µM	> 100	> 100 µM	> 100 µM	> 100 µM	> 100 µM	> 100 µM										
